Results on one compound are retold here after patent publication US5326902A, “Oxyalkyne compounds, pharmaceutical compositions containing them and processes for preparing such compounds and compositions” (Gruenenthal GmbH, priority 1992, dated 1994).

In general, IC50 refers to the concentration at which inhibition is half-maximal.

The test concerns the target T1, 5-lipoxygenase (Rattus norvegicus, UniProt P12527).
T1 construct: endogenous in cells; host or cells: RBL-1 cells (rat basophilic leukemia)
T1 sequence (P12527 1-673): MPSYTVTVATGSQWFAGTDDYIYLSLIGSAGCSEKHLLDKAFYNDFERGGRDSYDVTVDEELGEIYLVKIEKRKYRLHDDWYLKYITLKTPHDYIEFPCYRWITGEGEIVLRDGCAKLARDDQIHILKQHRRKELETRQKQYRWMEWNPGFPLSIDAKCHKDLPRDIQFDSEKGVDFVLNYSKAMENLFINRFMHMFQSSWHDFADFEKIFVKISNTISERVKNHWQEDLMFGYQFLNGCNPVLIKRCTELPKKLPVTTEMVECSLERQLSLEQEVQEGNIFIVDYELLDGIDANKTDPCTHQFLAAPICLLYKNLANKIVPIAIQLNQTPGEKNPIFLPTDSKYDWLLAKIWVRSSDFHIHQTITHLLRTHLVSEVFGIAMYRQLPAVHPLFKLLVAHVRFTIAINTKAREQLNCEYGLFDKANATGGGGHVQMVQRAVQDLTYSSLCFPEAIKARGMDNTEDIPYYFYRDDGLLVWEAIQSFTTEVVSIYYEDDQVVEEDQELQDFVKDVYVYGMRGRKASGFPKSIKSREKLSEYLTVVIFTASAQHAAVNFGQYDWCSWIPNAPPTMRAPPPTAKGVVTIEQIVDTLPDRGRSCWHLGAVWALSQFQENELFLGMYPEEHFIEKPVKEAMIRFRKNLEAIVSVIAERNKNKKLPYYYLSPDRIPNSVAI
Description: Inhibition of 5-lipoxygenase in RBL-1-cells. It is filed as cell-based. The following applies: 20 μM [14C]-arachidonic acid, 20 μM calcium ionophore A 23 187, 10 minutes. The method, then:
To determine the inhibition of 5-lipoxygenase, rat basophilic leukemia cells (RBL-1-cells) were cultured in vitro, harvested by centrifugation, washed with 50 mM potassium phosphate buffer of pH 7.4, and then suspended in this buffer at 1×10^7 cells/ml. Indomethacin (10 μM) and calcium chloride (2 mM) were added to 1 ml portions of this suspension, and then the mixture was incubated either in the presence of a compound according to the invention in a concentration range of from 0,1 μM to 100 μM or in the presence of a solvent (ethanol and/or dimethyl sulfoxide) for 3 minutes and thereafter with 20 μM of [^14 C]-arachidonic acid and 20 μM of calcium ionophore A 23 187 for 10 minutes. The reaction was stopped by adding 20 μl of glacial acetic acid, and then the mixture was extracted with ethyl acetate to isolate the metabolites of arachidonic acid formed by the enzymatic action of 5-lipoxygenase. These were separated by thin layer chromatography using a solvent mixture known to be suitable for lipoxygenase products [c.f. Jakschik et al., Biochem. Biophys. Res. Commun. 102, 624 (1981)].
The distribution of radioactivity among the different metabolites of arachidonic acid was measured using a TLC Linear Analyzer. By correlating the percentage amounts of the products formed under the action of 5-lipoxygenase (5HETE, isomers of LTB4) in the absence as well as in the presence of different concentrations of compounds according to the invention, the IC50 -values, i.e. the concentrations which cause a 50% inhibition of 5-lipoxygenase, were determined graphically from semilogarithmic plots.

As to `CC(=O)N(O)Cc1ccc(C(O)C#Cc2ccccc2)cc1` (racemic) [Example 1, N-Hydroxy-N-[4-[1-hydroxy-3-phenyl-prop-2-yn-1-yl]benzyl]acetamide], the IC50 was 5 µM.
